# Experimental data reported in ChEMBL document CHEMBL1131476, “Synthesis of a methylenebis(phosphonate) analogue of mycophenolic adenine dinucleotide: a glucuronidation-resistant MAD analogue of NAD” (J Med Chem, 1998).
# How the values were obtained:
# K562 = assay: Inhibitory activity against growth of human erythroleukemia […] cells; type: functional, cell-based
# [1] = biological target: Inosine-5'-monophosphate dehydrogenase 2 (Homo sapiens, UniProt P12268); assay: Inhibitory activity against human Inosine-5'-monophosphate dehydrogenase 2 (IMPDH type II isoform)
# [2] = biological target: Inosine-5'-monophosphate dehydrogenase 1 (Homo sapiens, UniProt P20839); assay: Inhibitory activity against human Inosine-5'-monophosphate dehydrogenase 1 (IMPDH type I isoform); Range is 33-37 nM
# Inosine-5'-monophosphate dehydrogenase 1, sequence (P20839 whole entry, canonical isoform): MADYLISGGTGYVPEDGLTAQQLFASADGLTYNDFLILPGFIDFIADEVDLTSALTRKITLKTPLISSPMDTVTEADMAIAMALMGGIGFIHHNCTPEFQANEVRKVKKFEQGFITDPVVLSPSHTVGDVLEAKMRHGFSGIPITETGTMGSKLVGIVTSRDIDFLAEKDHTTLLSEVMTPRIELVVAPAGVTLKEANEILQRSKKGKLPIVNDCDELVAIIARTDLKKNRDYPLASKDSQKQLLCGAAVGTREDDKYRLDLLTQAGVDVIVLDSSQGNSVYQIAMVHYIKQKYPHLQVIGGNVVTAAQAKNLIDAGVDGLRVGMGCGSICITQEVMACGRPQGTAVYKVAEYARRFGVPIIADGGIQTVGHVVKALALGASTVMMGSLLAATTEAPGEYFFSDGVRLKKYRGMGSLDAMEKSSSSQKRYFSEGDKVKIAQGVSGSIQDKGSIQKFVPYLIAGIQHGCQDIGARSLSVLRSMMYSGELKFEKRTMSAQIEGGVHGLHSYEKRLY
Compound,IC50 (K562) [nM],Ki [1] [nM],Ki [2] [nM]
COc1c(C)c2c(c(O)c1C/C=C(\C)CCCOP(=O)(O)CP(=O)(O)OC[C@@H]1OC(n3cnc4c(N)ncnc43)[C@@H](O)[C@H]1O)C(=O)OC2 (stereo not given in full),1500,300,–
COc1c(C)c2c(c(O)c1C/C=C(\C)CCC(=O)O)C(=O)OC2 [MYCOPHENOLIC ACID],80,–,33
COc1c(C)c2c(c(O)c1C/C=C(\C)CCCO)C(=O)OC2,1500,–,–
